From US12077503B2, “Substituted cyclic amides and their use as herbicides” (FMC CORPORATION, priority 2015, dated 2024)

Tests used:
Assay type in all cases: in vivo
[1] = tested on: Kochia (Kochia scoparia); assay: Test A preemergence; details: Bassia scoparia, pre-emergence, 240 h, 0 to 100 scale where 0 is no effect and 100 is complete control, read-out: Kochia plant response rating
In short: (§1)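 Treatment is preemergence as a directed soil spray after planting, or postemergence at the one- to two-leaf stage, with test chemical in a non-phytotoxic solvent mixture plus surfactant. Plants stay in the greenhouse about 10 d before visual injury scoring on a 0 to 100 scale versus untreated controls.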

[2] = tested on: barnyardgrass (Echinochloa crus-galli); assay: Test A preemergence; details: Echinochloa crus-galli, pre-emergence, 240 h, 0 to 100 scale where 0 is no effect and 100 is complete control, read-out: Barnyardgrass plant response rating
In short: as §1

[3] = tested on: ryegrass, Italian (Italian ryegrass, Lolium multiflorum); assay: Test A preemergence; details: Lolium multiflorum, pre-emergence, 240 h, 0 to 100 scale where 0 is no effect and 100 is complete control, read-out: Ryegrass, Italian plant response rating
In short: as §1

[4] = tested on: giant foxtail (Setaria faberii); assay: Test A preemergence; details: Setaria faberi, pre-emergence, 240 h, 0 to 100 scale where 0 is no effect and 100 is complete control, read-out: Foxtail, Giant plant response rating
In short: as §1

[5] = tested on: pigweed (Amaranthus retroflexus); assay: Test A preemergence; details: Amaranthus retroflexus, pre-emergence, 240 h, 0 to 100 scale where 0 is no effect and 100 is complete control, read-out: Pigweed plant response rating
[6] = tested on: ragweed (common ragweed, Ambrosia elatior); assay: Test A preemergence; details: Ambrosia artemisiifolia, pre-emergence, 240 h, 0 to 100 scale where 0 is no effect and 100 is complete control, read-out: Ragweed plant response rating
In short: as §1

[7] = tested on: blackgrass (Alopecurus myosuroides); assay: Test A postemergence; details: Alopecurus myosuroides, post-emergence, 240 h
In short: as §1

[8] = tested on: Kochia (Kochia scoparia); assay: Test A postemergence; details: Bassia scoparia, post-emergence, 240 h
In short: as §1

[9] = tested on: wheat (Triticum aestivum); assay: Test A postemergence; details: Triticum aestivum, post-emergence, 240 h
In short: as §1

[10] = tested on: corn (Zea mays); assay: Test A postemergence; details: Zea mays, post-emergence, 240 h
In short: as §1

[11] = tested on: barnyardgrass (Echinochloa crus-galli); assay: Test A postemergence; details: Echinochloa crus-galli, post-emergence, 240 h
In short: as §1

[12] = tested on: ryegrass, Italian (Italian ryegrass, Lolium multiflorum); assay: Test A postemergence; details: Lolium multiflorum, post-emergence, 240 h
In short: as §1

[13] = tested on: giant foxtail (Setaria faberii); assay: Test A postemergence; details: Setaria faberi, post-emergence, 240 h
In short: as §1

[14] = tested on: Galium (catchweed bedstraw, Galium aparine); assay: Test A postemergence; details: Galium, post-emergence, 240 h
In short: as §1

[15] = tested on: pigweed (Amaranthus retroflexus); assay: Test A postemergence; details: Amaranthus retroflexus, post-emergence, 240 h
In short: as §1

[16] = tested on: ragweed (common ragweed, Ambrosia elatior); assay: Test A postemergence; details: Ambrosia artemisiifolia, post-emergence, 240 h
In short: as §1

[17] = tested on: barnyardgrass (Echinochloa crus-galli); assay: Test B flooded paddy test; details: Echinochloa crus-galli, 250 g ai/ha, Flood; 0 to 100 scale where 0 is no effect and 100 is complete control; read-out: Barnyardgrass plant response rating
In short: (§2)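 Visual ratings (0 none to 100 complete control) are relative to untreated plants, taken 13–15 d after treatment in a greenhouse. Test material went straight into floodwater standing 3 cm above the soil, kept constant, on plants at the 2-leaf stage.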

[18] = tested on: rice (Oryra sativa); assay: Test B flooded paddy test; details: Oryza sativa, 250 g ai/ha, Flood; 0 to 100 scale where 0 is no effect and 100 is complete control; read-out: Rice plant response rating
In short: as §2

[19] = tested on: ducksalad (Heteranthera limosa); assay: Test B flooded paddy test; details: Heteranthera limosa, 250 g ai/ha, Flood; 0 to 100 scale where 0 is no effect and 100 is complete control; read-out: Ducksalad plant response rating
In short: as §2

[20] = tested on: sedge, umbrella (small-flower umbrella sedge, Cyperus difformis); assay: Test B flooded paddy test; details: Cyperus difformis, 250 g ai/ha, Flood; 0 to 100 scale where 0 is no effect and 100 is complete control; read-out: Sedge, Umbrella plant response rating
In short: as §2

[21] = 125 g ai/ha, preemergence, approx. 10 d

CN1C[C@H](c2csc3c2CCOC3)[C@@H](C(=O)Nc2ccccc2S(C)(=O)=O)C1=O [Compound 1078]
pest or weed control at 31 g/ha ([1]; 31 g ai/ha, Preemergence): 0% | pest or weed control at 125 g/ha [1, 21]: 0% | pest or weed control at 31 g/ha ([2]; 31 g ai/ha, Preemergence): 0% | pest or weed control at 125 g/ha [2, 21]: 0% | pest or weed control at 31 g/ha ([3]; 31 g ai/ha, Preemergence): 0% | pest or weed control at 125 g/ha [3, 21]: 0% | pest or weed control at 31 g/ha ([4]; 31 g ai/ha, Preemergence): 0% | pest or weed control at 125 g/ha [4, 21]: 0% | pest or weed control at 31 g/ha ([5]; 31 g ai/ha, Preemergence): 0% | pest or weed control at 125 g/ha [5, 21]: 0% | pest or weed control at 31 g/ha ([6]; 31 g ai/ha, Preemergence): 0% | pest or weed control at 125 g/ha [6, 21]: 0% | pest or weed control at 125 g/ha ([7]; 125 g ai/ha, postemergence, visual injury on 0 to 100 scale (0 no effect, 100 complete control), approx. 10 d, read-out: Blackgrass plant response rating): 0% | pest or weed control at 31 g/ha ([7]; Postemergence, 31 g ai/ha, visual injury after approx. 10 d, 0 to 100 scale, 0 no effect, 100 complete control, read-out: Plant response rating, Blackgrass): 0% | pest or weed control at 125 g/ha ([8]; 125 g ai/ha, postemergence, visual injury on 0 to 100 scale (0 no effect, 100 complete control), approx. 10 d, read-out: Kochia plant response rating): 0% | pest or weed control at 31 g/ha ([8]; Postemergence, 31 g ai/ha, visual injury after approx. 10 d, 0 to 100 scale, 0 no effect, 100 complete control, read-out: Plant response rating, Kochia): 0% | plant injury at 125 g/ha ([9]; 125 g ai/ha, postemergence, visual injury on 0 to 100 scale (0 no effect, 100 complete control), approx. 10 d, read-out: Wheat plant response rating): 0% | plant injury at 31 g/ha ([9]; Postemergence, 31 g ai/ha, visual injury after approx. 10 d, 0 to 100 scale, 0 no effect, 100 complete control, read-out: Plant response rating, Wheat): 0% | plant injury at 125 g/ha ([10]; 125 g ai/ha, postemergence, visual injury on 0 to 100 scale (0 no effect, 100 complete control), approx. 10 d, read-out: Corn plant response rating): 0% | Corn plant response rating (crop injury, 0 = no effect, 100 = complete kill) at 31 g/ha ([10]; Postemergence, 31 g ai/ha, visual injury after approx. 10 d, 0 to 100 scale, 0 no effect, 100 complete control): 0% | pest or weed control at 125 g/ha ([11]; 125 g ai/ha, postemergence, visual injury on 0 to 100 scale (0 no effect, 100 complete control), approx. 10 d, read-out: Barnyardgrass plant response rating): 10% | pest or weed control at 31 g/ha ([11]; Postemergence, 31 g ai/ha, visual injury after approx. 10 d, 0 to 100 scale, 0 no effect, 100 complete control, read-out: Plant response rating, Barnyardgrass): 0% | pest or weed control at 125 g/ha ([12]; 125 g ai/ha, postemergence, visual injury on 0 to 100 scale (0 no effect, 100 complete control), approx. 10 d, read-out: Ryegrass, Italian plant response rating): 0% | pest or weed control at 31 g/ha ([12]; Postemergence, 31 g ai/ha, visual injury after approx. 10 d, 0 to 100 scale, 0 no effect, 100 complete control, read-out: Plant response rating, Ryegrass, Italian): 0% | pest or weed control at 125 g/ha ([13]; 125 g ai/ha, postemergence, visual injury on 0 to 100 scale (0 no effect, 100 complete control), approx. 10 d, read-out: Foxtail, Giant plant response rating): 0% | pest or weed control at 31 g/ha ([13]; Postemergence, 31 g ai/ha, visual injury after approx. 10 d, 0 to 100 scale, 0 no effect, 100 complete control, read-out: Plant response rating, Foxtail, Giant): 0% | pest or weed control at 125 g/ha ([14]; 125 g ai/ha, postemergence, visual injury on 0 to 100 scale (0 no effect, 100 complete control), approx. 10 d, read-out: Galium plant response rating): 0% | pest or weed control at 31 g/ha ([14]; Postemergence, 31 g ai/ha, visual injury after approx. 10 d, 0 to 100 scale, 0 no effect, 100 complete control, read-out: Plant response rating, Galium): 0% | pest or weed control at 125 g/ha ([15]; 125 g ai/ha, postemergence, visual injury on 0 to 100 scale (0 no effect, 100 complete control), approx. 10 d, read-out: Pigweed plant response rating): 0% | pest or weed control at 31 g/ha ([15]; Postemergence, 31 g ai/ha, visual injury after approx. 10 d, 0 to 100 scale, 0 no effect, 100 complete control, read-out: Plant response rating, Pigweed): 0% | pest or weed control at 125 g/ha ([16]; 125 g ai/ha, postemergence, visual injury on 0 to 100 scale (0 no effect, 100 complete control), approx. 10 d, read-out: Ragweed plant response rating): 0% | pest or weed control at 31 g/ha ([16]; Postemergence, 31 g ai/ha, visual injury after approx. 10 d, 0 to 100 scale, 0 no effect, 100 complete control, read-out: Plant response rating, Ragweed): 0% | pest or weed control at 250 g/ha [17]: 30% | pest or weed control at 250 g/ha [18]: 0% | pest or weed control at 250 g/ha [19]: 0% | pest or weed control at 250 g/ha [20]: 0%
